What was measured:
[1] = test system: pulmonary artery rings; test: Ex vivo myography of pulmonary artery rings after chronic SUL-150 administration, phenylephrine-induced vasoconstriction; type: in vivo, rat; conditions: for EC50: Rattus norvegicus, 840 h
[2] = test system: pulmonary artery rings; test: Ex vivo myography of pulmonary artery rings, acute SUL-150 pre-incubation, phenylephrine-induced vasoconstriction; set-up: species or system rat; conditions: vehicle pre-incubation; for EC50: Rattus norvegicus
Procedure: The fourth-degree branching intralobar pulmonary arteries were carefully dissected under a Leica S4E stereomicroscope as described before. Arterial ring segments (2 mm length) were mounted in a Mulvany-type wire myograph system (model #610M, Danish Myo Technology, Aarhus, Denmark) using Ø40 µm steel wire. Rings were preserved in myography chambers filled with aerated Krebs buffer (pH 7.4) at 37 °C. After 20 min equilibration, rings were stretched to 1.8 kPa using the DMT Normalization Procedure and allowed to equilibrate for an additional 20 min. Analogue–digital signal conversion was performed using PowerLab 8/30, and a myogram was recorded in PowerLab Chart v 5.3 (AD Instruments, Oxford, UK). To assess the acute effects of SUL-150 on vasoconstriction, arterial rings were pre-constricted with 60 mM KCl and, following washout and stabilization, incubated with vehicle (0.1% DMSO) or SUL-150 (10^−4 M) for 20 min. Next, constriction responses to phenylephrine (phenylephrine, Sigma-Aldrich, St. Louis, MO, USA) were recorded in the dose range of 3 × 10^−9 to 3 × 10^−5 M. To assess the chronic effects of SUL-150 treatment, a similar protocol was followed, leaving out the preincubation with vehicle or SUL-150. Isometric responses were calculated as % of maximal KCl-induced constriction, and dose–response curves were recorded to determine the efficacy (Emax) and potency (EC50) of phenylephrine to induce vasoconstriction.

[3] = test system: neonatal rat cardiomyocytes; test: In vitro hypertrophy reporter assay in phenylephrine-treated cardiomyocytes; type: cell-based; conditions: vehicle pre-incubation, phenylephrine 24 h
Procedure: Cultures of neonatal rat cardiomyocytes were prepared from 1–3-day-old Wistar rats and adenovirally transformed with hypertrophy reporter construct as described elsewhere. Cardiomyocytes were pre-incubated with SUL-150 (3 × 10^−5 M) or vehicle for 30 min and subsequently stimulated with phenylephrine in the dose range of 10^−8 to 10^−4 M for 24 h. Cells were lysed in passive lysis buffer (Promega, Madison, WI, USA), and […] intensity of the lysate was recorded in an EnVision 2102 plate reader (Perkin Elmer, Waltham, MA, USA).

[4] = rings of sham control rats (day 35, chronic study)
[5] = rings of vehicle-treated PAH rats (day 35, chronic study)
[6] = pulmonary artery rings of PAH rats
[7] = pulmonary artery rings of sham rats

EC50 [1, 4]: 89.8 nM
EC50 [1, 5]: 1240 nM
EC50 [2, 6]: 1080 nM
EC50 [2, 7]: 174 nM
Compound: CNC[C@H](O)c1cccc(O)c1 [phenylephrine]
Emax of phenylephrine-induced vasoconstriction [1, 4]: 33.0 ± 2.3 % of max
Emax of phenylephrine-induced vasoconstriction [1, 5]: 71.9 ± 9.2 % of max
Emax of phenylephrine-induced vasoconstriction [2, 6]: 43.4 % of max
Emax of phenylephrine-induced vasoconstriction [2, 7]: 34.7 % of max
EC50 ([3]; Rattus norvegicus, Cardiomyocyte): 1520 nM
Emax of phenylephrine in hypertrophy reporter [3]: 3.93 RFU
